In ChEMBL document CHEMBL1133300, “Natural product derived inhibitors of lipoprotein associated phospholipase A2, synthesis and activity of analogues of SB-253514” (Bioorg Med Chem Lett, 2000) one finds IC50 data, which are given here for eight compounds.

SMILES strings stand for the structures.

The nature of the first assay: The compound was evaluated for time dependent inhibitory activity against Lipoprotein associated Phospholipase A2 (Lp-PLA2) enzyme after 10 min incubation; Inactive.
A word on the IC50: it is the concentration that gives 50% inhibition. Take `CCCCCCCC(=O)OCCCCC#C/C=C1/OC(=O)N2CCC[C@@H]12`: the IC50 result is “Not Active”.
Still for that read-out and setting: the entry for `O=C1O/C(=C/C#CCCCCO)[C@@H]2CCCN12` is “Not Active”.
The same measure, in the same setting: for `CCCCCCCCCCCCCCC#C/C=C1/OC(=O)N2CCC[C@@H]12` the value was “Not Active”.

A further assay in a line: The compound was evaluated for time dependent inhibitory activity against Lipoprotein associated Phospholipase A2 (Lp-PLA2) enzyme after 10 min incubation.
`CCCCCCCCCCC[C@H](CC(=O)NC(=O)/C=C1/OC(=O)N2CCCC12)O[C@@H]1O[C@@H](C)[C@H](O)[C@@H](O)[C@H]1O` (stereo partly drawn) registered an IC50 of 51 nM.
The same measure, in the same setting: the figure for `CCCCCCCCCCCCCCCCNC(=O)/C=C1/OC(=O)N2CCC[C@H]12` is 12 nM.
In the case of `CCCCCCCCCCCCCCCCNC(=O)/C=C1/OC(=O)N2CCC[C@@H]12`, the concentration for half-maximal inhibition (IC50) stood at 25 nM.
Turning to `CCCCCCCCCCCCCCNC(=O)/C=C1/OC(=O)N2CCC[C@@H]12`, the IC50 worked out at 28 nM.
With `CCCCCCCCCCCCNC(=O)/C=C1/OC(=O)N2CCC[C@@H]12`, the IC50 is 170 nM.
